Data: US20240239752A1, “BICYCLIC HETEROAROMATIC INHIBITORS OF KLK5” (BioCryst Pharmaceuticals, Inc., priority 2021, published 2024)

molecular target: T1, recombinant human KLK5 (Homo sapiens, UniProt Q9Y337); test: Kallikrein (KLK) 5 enzymatic assay (Boc-VPR-AMC fluorogenic substrate); format: biochemical; conditions: recombinant human KLK5 0.1 μg/well, Boc-VPR-AMC 100 μM, pH 7.5, room temperature, 1% DMSO; tested a minimum of three times
T1 construct: purchased Novoprotein or R&D Systems C415 or 1108-SE
T1 sequence (Q9Y337 23-293): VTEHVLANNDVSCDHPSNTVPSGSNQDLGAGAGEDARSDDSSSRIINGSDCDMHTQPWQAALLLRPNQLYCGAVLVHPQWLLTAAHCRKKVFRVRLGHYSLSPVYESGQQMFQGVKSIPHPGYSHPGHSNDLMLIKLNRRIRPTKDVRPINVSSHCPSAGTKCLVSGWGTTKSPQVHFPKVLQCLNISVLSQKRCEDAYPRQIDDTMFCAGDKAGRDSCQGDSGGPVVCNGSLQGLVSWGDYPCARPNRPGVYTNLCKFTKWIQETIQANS
In short: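 Recombinant human KLK5 (0.1 μg/well) was preincubated with compound at room temperature in 0.1 M NaH2PO4, pH 7.5, 1% DMSO, then started with 100 μM Boc-VPR-AMC. The rate was followed at 380/460 nm, and IC50 came from percent inhibition relative to enzyme alone, with at least three runs.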

| SMILES | IC50 [nM] |
| --- | --- |
| Nc1nccc2c(-c3ccc4nn([C@H]5CCN(CC(=O)O)C5)c(COc5ccccc5CC(=O)O)c4c3)cccc12 [Compound 114d, (S)-2-(2-((5-(1-aminoisoquinolin-5-yl)-2-(1-(carboxymethyl)pyrrolidin-3-yl)-2H-indazol-3-yl)methoxy)phenyl)acetic acid] | < 1000 |
| CC(C)n1nc(COc2ccccc2CC(=O)O)c2cc(-c3cccc4c(N)noc34)ccc21 [Compound 30c, 2-(2-((5-(3-aminobenzo[d]isoxazol-7-yl)-1-isopropyl-1H-indazol-3-yl)methoxy)phenyl)acetic acid] | > 10000 |
| CC(C)Oc1c(C(=N)N)cccc1-c1ccc2c(c1)c(COc1ccccc1CC(=O)O)nn2C(C)C [Compound 272f, 2-(2-((5-(3-carbamimidoyl-2-isopropoxyphenyl)-1-isopropyl-1H-indazol-3-yl)methoxy)phenyl)acetic acid] | 1000 to 10000 |
| Nc1nccc2ccc(-c3ccc4nn(C5CCC5)c(COc5cc(OC(F)(F)F)ccc5CC(=O)O)c4c3)cc12 [Compound 153d, 2-(2-((5-(1-aminoisoquinolin-7-yl)-2-cyclobutyl-2H-indazol-3-yl)methoxy)-4-(trifluoromethoxy)phenyl)acetic acid] | > 10000 |
| Nc1nccc2ccc(-c3ccc4c(c3)c(COc3ccccc3CC(=O)O)nn4C3CCOC3)cc12 (stereo not drawn) [Compound 250b, 2-(2-((5-(1-aminoisoquinolin-7-yl)-1-(tetrahydrofuran-3-yl)-1H-indazol-3-yl)methoxy)phenyl)acetic acid] | < 1000 |
| NC(=O)c1cc(-c2cccc3c(N)nccc23)cc2c(COc3ccccc3CC(=O)O)nn(C3CCCCO3)c12 (stereo not drawn) [Compound 286a, 2-(2-((5-(1-aminoisoquinolin-5-yl)-7-carbamoyl-1-(tetrahydro-2H-pyran-2-yl)-1H-indazol-3-yl)methoxy)phenyl)acetic acid] | 1000 to 10000 |
| Nc1nccc2ccc(-c3ccc4c(c3)c(COc3ccccc3CC(=O)O)nn4C3CC3)cc12 [Compound 60b, 2-(2-((5-(1-aminoisoquinolin-7-yl)-1-cyclopropyl-1H-indazol-3-yl)methoxy)phenyl)acetic acid] | < 1000 |
| COCCN1CCC(n2nc(COc3ccccc3CC(=O)O)c3cc(-c4ccc5ccnc(N)c5c4)ccc32)C1 (stereo not drawn) [Compound 304b, 2-(2-((5-(1-aminoisoquinolin-7-yl)-1-(1-(2-methoxyethyl)pyrrolidin-3-yl)-1H-indazol-3-yl)methoxy)phenyl)acetic acid] | < 1000 |
| CC(C)OC(=O)N1CCC2(CC1)CC(Oc1ccccc1CC(=O)O)c1cc(-c3cccc4c(N)nccc34)ccc12 (stereo not drawn) [Compound 375b, 2-(2-((5-(1-aminoisoquinolin-5-yl)-1′-(isopropoxycarbonyl)-2,3-dihydrospiro[indene-1,4′-piperidin]-3-yl)oxy)phenyl)acetic acid] | < 1000 |
| Nc1nccc2c(-c3ccc4c(c3)[C@H](Oc3cccc(OC(F)(F)F)c3CC(=O)O)CC4)cccc12 [Compound 435b, (R)-2-(2-((6-(1-aminoisoquinolin-5-yl)-2,3-dihydro-1H-inden-1-yl)oxy)-6-(trifluoromethoxy)phenyl)acetic acid] | < 1000 |
| CCOC(=O)N1CCC2(CC1)CC(Oc1cccc(C)c1CC(=O)O)c1cc(-c3cccc4c(N)nccc34)ccc12 (stereo not drawn) [Compound 405b, 2-(2-((5-(1-aminoisoquinolin-5-yl)-1′-(ethoxycarbonyl)-2,3-dihydrospiro[indene-1,4′-piperidin]-3-yl)oxy)-6-methylphenyl)acetic acid] | < 1000 |
| COc1ccc(OCc2nn(C3CCC3)c3ccc(-c4ccc5ccnc(N)c5c4)cc23)c(CC(=O)O)c1 [Compound 170c, 2-(2-((5-(1-aminoisoquinolin-7-yl)-1-cyclobutyl-1H-indazol-3-yl)methoxy)-5-methoxyphenyl)acetic acid] | < 1000 |
| CCOC(=O)N1CCC(n2nc(COc3ccccc3CC(=O)O)c3cc(-c4cccc5c(N)nccc45)ccc32)C1 (stereo not drawn) [Compound 311b, 2-(2-((5-(1-aminoisoquinolin-5-yl)-1-(1-(ethoxycarbonyl)pyrrolidin-3-yl)-1H-indazol-3-yl)methoxy)phenyl)acetic acid] | < 1000 |
| CC(C)n1nc(COc2ccccc2CC(=O)O)c2cc(-c3ccnc4c(N)nccc34)ccc21 [Compound 80d, 2-(2-((5-(8-amino-1,7-naphthyridin-4-yl)-1-isopropyl-1H-indazol-3-yl)methoxy)phenyl)acetic acid] | 1000 to 10000 |
| CC(C)CCN1CC(n2nc3ccc(-c4cccc5c(N)nccc45)cc3c2COc2ccccc2CC(=O)O)C1 [Compound 121c, 2-(2-((5-(1-aminoisoquinolin-5-yl)-2-(1-isopentylazetidin-3-yl)-2H-indazol-3-yl)methoxy)phenyl)acetic acid] | < 1000 |
| CC(C)n1nc(COc2ccccc2CC(=O)O)c2cc(-c3ccc4ncc(N)n4n3)ccc21 [Compound 55c, 2-(2-((5-(3-aminoimidazo[1,2-b]pyridazin-6-yl)-1-isopropyl-1H-indazol-3-yl)methoxy)phenyl)acetic acid] | > 10000 |
| N#Cc1ccc(CC(=O)O)c(O[C@@H]2CCc3ccc(-c4ccc5ccnc(N)c5c4)cc32)c1 [Compound 423c, (R)-2-(2-((6-(1-aminoisoquinolin-7-yl)-2,3-dihydro-1H-inden-1-yl)oxy)-4-cyanophenyl)acetic acid] | < 1000 |
| Nc1nccc2ccc(-c3cnc4c(c3)c(COc3ccccc3CC(=O)O)nn4C3CCC3)cc12 [Compound 197j, 2-(2-((5-(1-aminoisoquinolin-7-yl)-1-cyclobutyl-1H-pyrazolo[3,4-b]pyridin-3-yl)methoxy)phenyl)acetic acid] | < 1000 |
| CC(C)(C)OC(=O)NCc1cc(-c2cccc3c(N)nccc23)cc2c(COc3ccccc3CC(=O)O)nn(C3CCCCO3)c12 (stereo not drawn) [Compound 278c, 2-(2-((5-(1-aminoisoquinolin-5-yl)-7-(((tert-butoxycarbonyl)amino)methyl)-1-(tetrahydro-2H-pyran-2-yl)-1H-indazol-3-yl)methoxy)phenyl)acetic acid] | 1000 to 10000 |
| Nc1nccc2ccc(-c3ccc4c(c3)C(Oc3ccccc3CC(=O)O)CC43CCOCC3)cc12 (stereo not drawn) [Compound 350h, 2-(2-((5-(1-aminoisoquinolin-7-yl)-2,2′,3,3′,5′,6′-hexahydrospiro[indene-1,4′-pyran]-3-yl)oxy)phenyl)acetic acid] | < 1000 |
| COCCN1CC(n2nc3ccc(-c4cccc5c(N)nccc45)cc3c2COc2ccccc2CC(=O)O)C1 [Compound 120c, 2-(2-((5-(1-aminoisoquinolin-5-yl)-2-(1-(2-methoxyethyl)azetidin-3-yl)-2H-indazol-3-yl)methoxy)phenyl)acetic acid] | < 1000 |
| Cc1cc(-c2ccc3ccnc(N)c3c2)cc2c1CCC2Oc1ccccc1CC(=O)O (stereo not drawn) [Compound 205e, 2-(2-((6-(1-aminoisoquinolin-7-yl)-4-methyl-2,3-dihydro-1H-inden-1-yl)oxy)phenyl)acetic acid] | 1000 to 10000 |
| COCCC1(CCOC)CC(Oc2ccccc2CC(=O)O)c2cc(-c3cccc4c(N)nccc34)ccc21 (stereo not drawn) [Compound 447b, 2-(2-((6-(1-aminoisoquinolin-5-yl)-3,3-bis(2-methoxyethyl)-2,3-dihydro-1H-inden-1-yl)oxy)phenyl)acetic acid] | < 1000 |
| Cc1cc2c(-c3ccc4c(c3)c(COc3ccccc3CC(=O)O)nn4C(C)C)cccc2c(N)n1 [Compound 220d, 2-(2-((5-(1-amino-3-methylisoquinolin-5-yl)-1-isopropyl-1H-indazol-3-yl)methoxy)phenyl)acetic acid] | 1000 to 10000 |
| COC(=O)N1CCC2(CC1)CC(Oc1cc(C#N)ccc1CC(=O)O)c1cc(-c3cccc4c(N)nccc34)ccc12 (stereo not drawn) [Compound 411b, 2-(2-((5-(1-aminoisoquinolin-5-yl)-1′-(methoxycarbonyl)-2,3-dihydrospiro[indene-1,4′-piperidin]-3-yl)oxy)-4-cyanophenyl)acetic acid] | < 1000 |
| Nc1nccc2c(-c3ccc4c(c3)c(COc3ccccc3CC(=O)O)nn4CC3CC3)cccc12 [Compound 251c, 2-(2-((5-(1-aminoisoquinolin-5-yl)-1-(cyclopropylmethyl)-1H-indazol-3-yl)methoxy)phenyl)acetic acid] | < 1000 |
| COC(=O)N1CCC2(CC1)CC(Oc1cc(F)ccc1CC(=O)O)c1cc(-c3ccc4ccnc(N)c4c3)ccc12 (stereo not drawn) [Compound 408f, 2-(2-((5-(1-aminoisoquinolin-7-yl)-1′-(methoxycarbonyl)-2,3-dihydrospiro[indene-1,4′-piperidin]-3-yl)oxy)-4-fluorophenyl)acetic acid] | < 1000 |
| Cc1cccc(OCc2nn(C3CCCC3)c3ccc(-c4cccc5c(N)nccc45)cc23)c1CC(=O)O [Compound 239f, 2-(2-((5-(1-aminoisoquinolin-5-yl)-1-cyclopentyl-1H-indazol-3-yl)methoxy)-6-methylphenyl)acetic acid] | < 1000 |
| Nc1nccc2ccc(-c3ccc4c(c3)c(COc3cccc(C5CC5)c3CC(=O)O)nn4C3CCOC3)cc12 (stereo not drawn) [Compound 290d, 2-(2-((5-(1-aminoisoquinolin-7-yl)-1-(tetrahydrofuran-3-yl)-1H-indazol-3-yl)methoxy)-6-cyclopropylphenyl)acetic acid] | < 1000 |
| Cc1ccc(CC(=O)O)c(OCc2nn(C3CCC3)c3ccc(-c4cccc5c(N)nccc45)cc23)c1 [Compound 163c, 2-(2-((5-(1-aminoisoquinolin-5-yl)-1-cyclobutyl-1H-indazol-3-yl)methoxy)-4-methylphenyl)acetic acid] | < 1000 |
